Measurements from the supplement of paper PMC10307832.

Tests used:
Assay in all cases: relative viability (nuclei count vs DMSO), 5 days (fraction); higher = more cells survive
Pazopanib + Pemetrexed = compound: Cc1ccc(Nc2nccc(N(C)c3ccc4c(C)n(C)nc4c3)n2)cc1S(N)(=O)=O [Pazopanib] + Nc1nc2[nH]cc(CCc3ccc(C(=O)N[C@@H](CCC(=O)O)C(=O)O)cc3)c2c(=O)[nH]1 [Pemetrexed] (partner 0.2 µM)
Summary of the method: (§1)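 Lung cancer cell lines were seeded in 1536-well plates and dosed by pin tool the next day, with either a single drug or a fixed anchor-drug dose combined with five library-drug doses (not always all listed) spaced in √10 steps. Five days later, one step fixed the cells and stained their nuclei (final 0.05% Triton X-100, 1% formaldehyde, 1 ug/ml Hoechst), and nuclei were counted on 4× images. Relative viability is the nuclei count in treated wells divided by the count in vehicle wells, and each value is the median of duplicate plates.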

Pazopanib + Olaparib = compound: Cc1ccc(Nc2nccc(N(C)c3ccc4c(C)n(C)nc4c3)n2)cc1S(N)(=O)=O [Pazopanib] + O=C(c1cc(Cc2n[nH]c(=O)c3ccccc23)ccc1F)N1CCN(C(=O)C2CC2)CC1 [Olaparib] (partner 8 µM)
Summary of the method: as §1

Ponatinib + Linsitinib = compound: Cc1ccc(C(=O)Nc2ccc(CN3CCN(C)CC3)c(C(F)(F)F)c2)cc1C#Cc1cnc2cccnn12 [Ponatinib] + C[C@]1(O)C[C@@H](c2nc(-c3ccc4ccc(-c5ccccc5)nc4c3)c3c(N)nccn32)C1 [Linsitinib] (partner 1 µM)
Summary of the method: as §1

Pazopanib + Crizotinib = compound: Cc1ccc(Nc2nccc(N(C)c3ccc4c(C)n(C)nc4c3)n2)cc1S(N)(=O)=O [Pazopanib] + C[C@@H](Oc1cc(-c2cnn(C3CCNCC3)c2)cnc1N)c1c(Cl)ccc(F)c1Cl [Crizotinib] (partner 1 µM)
Summary of the method: as §1

Row | Cell Line | relative viability (Pazopanib + Pemetrexed; first compound 0.01 µM) | relative viability (Pazopanib + Pemetrexed; first compound 0.03162 µM) | relative viability (Pazopanib + Pemetrexed; first compound 0.1 µM) | relative viability (Pazopanib + Pemetrexed; first compound 0.3162 µM) | relative viability (Pazopanib + Pemetrexed; first compound 1 µM) | relative viability (Pazopanib + Olaparib; first compound 0.01 µM) | relative viability (Pazopanib + Olaparib; first compound 0.03162 µM) | relative viability (Pazopanib + Olaparib; first compound 0.1 µM) | relative viability (Pazopanib + Olaparib; first compound 0.3162 µM) | relative viability (Pazopanib + Olaparib; first compound 1 µM) | relative viability (Ponatinib + Linsitinib; first compound 0.002 µM) | relative viability (Ponatinib + Linsitinib; first compound 0.006325 µM) | relative viability (Ponatinib + Linsitinib; first compound 0.06325 µM) | relative viability (Ponatinib + Linsitinib; first compound 0.2 µM) | relative viability (Pazopanib + Crizotinib; first compound 0.01 µM) | relative viability (Pazopanib + Crizotinib; first compound 0.03162 µM) | relative viability (Pazopanib + Crizotinib; first compound 0.1 µM) | relative viability (Pazopanib + Crizotinib; first compound 0.3162 µM) | relative viability (Pazopanib + Crizotinib; first compound 1 µM)
1 | NCI-H2342 | 0.599 | 0.756 | 0.842 | 0.75 | 0.655 | 0.385 | 0.443 | 0.481 | 0.386 | 0.365 | – | – | – | – | – | – | – | – | –
2 | NCI-H1299 | – | – | – | – | – | 1 | 0.961 | 0.934 | 0.993 | 0.865 | 0.915 | 0.948 | 0.971 | 0.951 | 0.983 | 0.913 | 0.921 | 0.969 | 0.892
3 | NCI-H1650 | 0.34 | 0.376 | 0.364 | 0.403 | 0.369 | 0.895 | 0.838 | 0.723 | 0.852 | 0.844 | – | – | – | – | 1.09 | 1 | 1 | 0.857 | 0.965
4 | SW 900 | 0.512 | 0.504 | – | 0.494 | 0.5 | 0.942 | 1.07 | – | 0.915 | 0.945 | – | – | – | – | – | – | – | – | –
5 | NCI-H1395 | 0.744 | 0.83 | 0.886 | 0.938 | 0.932 | 0.428 | 0.44 | 0.461 | 0.446 | 0.473 | – | 1.05 | 0.915 | 0.832 | – | – | – | – | –
6 | NCI-H1648 | – | – | 0.662 | 0.77 | 0.742 | – | – | 0.61 | 0.515 | 0.419 | – | – | – | – | – | – | – | – | –
7 | NCI-H522 | 0.842 | 0.83 | 0.956 | 1.09 | 1.02 | 0.587 | 0.617 | 0.678 | 0.707 | 0.642 | – | – | – | – | – | – | – | – | –
8 | NCI-H1793 | – | 0.864 | 0.949 | 0.76 | 1.09 | – | 0.8 | 1.03 | 0.906 | 1.05 | 0.815 | 0.924 | 0.964 | 0.762 | – | – | – | – | –
9 | A549 | – | – | – | – | – | 0.248 | 0.301 | 0.283 | 0.297 | 0.36 | 0.612 | 0.632 | 0.688 | 0.591 | 0.813 | 0.855 | 0.709 | 0.692 | 0.732
10 | NCI-H727 | – | – | – | – | – | 0.672 | – | 0.595 | 0.612 | 0.629 | 0.268 | 0.328 | 0.378 | 0.173 | 0.98 | 0.787 | 1.15 | 0.831 | 1.08
11 | NCI-H1563 | 0.707 | 0.805 | 0.691 | 0.876 | 0.81 | – | – | – | – | – | 1.22 | 1.26 | 1.21 | 1.1 | 0.963 | 0.88 | 0.894 | 0.878 | 0.888
12 | ABC-1 | – | – | – | – | – | 1.01 | 1.15 | 0.959 | 0.946 | 0.782 | 1.07 | 0.881 | 0.794 | 0.973 | 1.27 | 1.04 | 0.873 | 0.986 | 1.11
